“Also recorded” adds a separate entry of the source. Like-named read-outs stand apart in the source and are kept apart here.
Columns and labels:
Type in all cases: in vivo, BALB/c mice
skin-fold thickness = experiment: Time course of TPA effects on skin of mice: skin-fold thickness; conditions: for Increase in skin-fold thickness: single application 100 μL TPA 0.01% in acetone
Description: The back skin of shaved mice was folded and measured by using a “Etalon” micrometer screw gauge. One measurement was taken for each mouse.
(§1) This study was conducted to determine the time course of effects produced by applying TPA to mice and killing at intervals of 1, 2, 3, 5 and 8 days. Peak times for epidermal hyperplasia, dermal inflammation and skin-fold thickness were determined. The object of this study was to determine the best time to sacrifice TPA-treated mice so as to obtain the maximum response to TPA. […] It was thus expected that a compromise time would have to be selected.
(§2) Forty two female BALB/c strain mice were divided into the treatment groups and the mice were treated with a single application (100 μL) of TPA (0.01% in acetone) and sacrificed at days 1, 2, 3, 5 and 8 and the time course of TPA effects on epidermal hyperplasia, dermal inflammatory cell infiltration and skin-fold thickness measured as described in Example 1.

epidermal thickness = experiment: Time course of TPA effects on skin of mice: epidermal thickness; conditions: for Increase in epidermal thickness: single application 100 μL TPA 0.01% in acetone
Description: (§3) Epidermal thickness was determined by image analysis. This image analysis system was a minicomputer (Tracor Northern TN8500) attached to a light microscope (Zeiss Axioplan) and a camcorder (Sony DXC-3000P). Sections were taken from each tissue block and 20 measurements were taken at fixed intervals from each section. The average value for the 20 measurements was obtained and entered as one value for each mouse. The mean and SEM for the six mice in each treatment group were calculated.
as §1, §2

[1] = system: dermal inflammatory cell density; experiment: Time course of TPA effects on skin of mice: dermal inflammatory cell density; conditions: for Increase in dermal inflammatory cell density: single application 100 μL TPA 0.01% in acetone
Description: (§4) Infiltration of inflammatory cells was determined by the same image analysis system using the section taken from the block of mouse skin embedded in paraffin wax or Spurr's resin and stained with haematoxylin and eosin or toluidine blue respectively. For each section, 10 fields, unless otherwise stated, were chosen randomly and the cell density per mm^2 of field determined. The average value for the 10 fields was obtained and entered as one value for each mouse. The mean and SEM for the six mice in each treatment group were calculated.
The measurement of the inflammatory cell infiltration included the background values which included other materials in the dermis stained in the same way. However, the increase, if there is any, reflects the migration of inflammatory cells.
as §1, §2

[2] = system: TPA-induced epidermal hyperplasia; experiment: Inhibition of TPA-induced epidermal hyperplasia (epidermal thickness) on back skin of mice; conditions: for Relative potency: hydrocortisone acetate = 1.0
Description: (§5) The mice were housed in stainless steel cages, 6 mice per cage under normal laboratory conditions (room temperature at about 22° C.) at least 7 days before the experiments for acclimatization. Food and water were allowed ad libitum throughout the experiment period. The backs of the mice were shaved with an electric clipper two days before each treatment and only those mice showing no hair regrowth were used (i.e., the mice in the resting phase of the hair growth cycle were selected). During treatment, the mice were held with their tails and put on top of the cage so that they grasped the cage and rested there. The solutions were applied to an area approximately 2 cm×2 cm on the shaved back of the mice by using a “Pipetman” to apply the solution. If auranofin ointment or ointment base was applied, the amount was standardized by using a microspatula which was crimped at one end, the ointment was then put into the ridge and the excess removed by means of another microspatula and applied sparingly twice a day. After a fixed time, the mice were killed routinely by cervical dislocation between 9 a.m. and 11 a.m. to avoid variations due to circadian rhythms, and an area (1 cm×1 cm) was excised from the centre of the treated area by scalpel and scissors. The rest of the tissues were disposed by combustion. The tissues were then fixed, embedded, sectioned and stained.
as §3
(§6) The percent inhibition of drug on TPA-induced skin responses (i.e., epidermal hyperplasia, inflammatory cell infiltration and skin-fold thickness) was calculated by using the following formula: [formula]
(§7) This provides estimates of (a) the potency, (b) the efficacy or maximum effect (Emax) and the slope of the log concentration-response curve by using Hill coefficient (γ). The Hill Equation may be expressed as follows: [formula] where IC50 is the drug concentration producing 50% of the maximal response and Emax refers to the maximal effect produced by the drug and is also termed efficacy. Efficacy is the measurement of the intrinsic ability of a drug to initiate a response once it occupies receptor sites. […] The Hill coefficient (γ) measures the slope of the dose-effect curve which can be markedly influenced by the shape of the curve that describes the binding of the drug to the receptor. For many drugs, y lies between 0.6 and 1.5. […] On the other hand, when γ is less than 1, with a shallow hyperbolic concentration effect relationship, the activity occurs over a wide range of drug levels.
(§8) In the present study, concentration-response curves were obtained for a series of corticosteroids. In these experiments, curve fitting was accomplished using a computer programme called “The Scientist” (MicroMath Scientific Software, Salt Lake City, Utah, USA.) in which the parameters, Emax, IC50 and Hill coefficient (γ) for each steroids were estimated by using non-linear regression and least square fits.
Mice were divided into treatment groups. TPA and corticosteroids were premixed to the concentrations required and applied to the backs of mice immediately. For those steroids not very soluble in acetone (i.e., betamethasone, dexamethasone, hydrocortisone and hydrocortisone acetate), the drugs were dissolved in 100 μL dimethylformamide before further dilution with acetone. The efficacy of corticosteroids in inhibiting epidermal hyperplasia, inflammatory cell infiltration and skin-fold thickness was assessed as described previously. Concentration-response curves were determined after computer-fitting of data.

[3] = system: TPA-induced inflammatory cell infiltration into the dermis; experiment: Inhibition of TPA-induced inflammatory cell infiltration into the dermis of mice; conditions: for Relative potency: hydrocortisone acetate = 1.0
Description: as §5, §4
The measurement of the inflammatory cell infiltration included the background values which included other materials in the dermis stained in the same way.
as §6, §7, §8
Mice were divided into treatment groups. TPA and corticosteroids were premixed to the concentrations required and applied to the backs of mice immediately.

[4] = Mus musculus, topical, Hill equation fit, means ± SD, steroid premixed with TPA, topical, read-out: IC50 (M × 10^−4)
[5] = Mus musculus, Hill equation fit, means ± SD, steroid premixed with TPA, topical, read-out: Emax (% inhibition)

CCCCCCCCCCCCCC(=O)O[C@@H]1[C@@H](C)[C@@]2(O)[C@@H](C=C(CO)C[C@]3(O)C(=O)C(C)=C[C@@H]23)[C@@H]2C(C)(C)[C@]12OC(C)=O [TPA, 12-O-tetradecanoylphorbol 13-acetate]
Increase in skin-fold thickness (skin-fold thickness; Day 1): 193% | Increase in skin-fold thickness (skin-fold thickness; Day 2): 142% | Increase in skin-fold thickness (skin-fold thickness; Day 3): 124% | Increase in skin-fold thickness (skin-fold thickness; Day 5): 116% | Increase in skin-fold thickness (skin-fold thickness; Day 8): 107% | Time of peak effect, skin-fold thickening (skin-fold thickness; single application of TPA): 24 h | Increase in epidermal thickness (epidermal thickness; Day 1): 326% | Increase in epidermal thickness (epidermal thickness; Day 2): 382% | Increase in epidermal thickness (epidermal thickness; Day 3): 393% | Increase in epidermal thickness (epidermal thickness; Day 5): 270% | Increase in epidermal thickness (epidermal thickness; Day 8): 130% | Time of peak effect, epidermal hyperplasia (epidermal thickness; single application of TPA): 72 h | Increase in dermal inflammatory cell density ([1]; Day 1): 397% | Increase in dermal inflammatory cell density ([1]; Day 2): 296% | Increase in dermal inflammatory cell density ([1]; Day 3): 272% | Increase in dermal inflammatory cell density ([1]; Day 5): 280% | Increase in dermal inflammatory cell density ([1]; Day 8): 225% | Time of peak effect, dermal inflammation ([1]; single application of TPA): 24 h

CCCCC(=O)O[C@]1(C(=O)CO)[C@@H](C)C[C@H]2[C@@H]3CCC4=CC(=O)C=C[C@]4(C)[C@@]3(F)[C@@H](O)C[C@@]21C [Betamethasone valerate, betamethasone valerate]
Potency for inhibition of TPA-induced epidermal hyperplasia (in words) [2]: strong to very strong potencies; also recorded: most potent agent | IC50 ([2]; Mus musculus, from Hill equation, concentration that produced 50% of Emax, read-out: IC50 for inhibition of epidermal thickening (M × 10^−4)): 15 µM | IC50 ([2]; Mus musculus, read from concentration-response curve, concentration that inhibited 50% of the TPA effect, read-out: IC50 for inhibition of epidermal thickening (M × 10^−4)): 22 µM | IC50 [2, 4]: 15 ± 2 µM | Emax [2, 5]: 82.2 ± 2.84% | Relative potency ([2]; from Hill-equation IC50): 244.47 | Relative potency ([2]; from IC50 read from curve): 318.18 | IC50 ([3]; Mus musculus, from Hill equation, concentration that produced 50% of Emax, read-out: IC50 for inhibition of inflammatory cell infiltration in the dermis (M × 10^−4)): 29 µM | IC50 ([3]; Mus musculus, read from concentration-response curve, concentration that inhibited 50% of the TPA effect, read-out: IC50 for inhibition of inflammatory cell infiltration in the dermis (M × 10^−4)): 65 µM | IC50 [3, 4]: 29 ± 3 µM | Emax [3, 5]: 73.5 ± 1.76% | Relative potency ([3]; from Hill-equation IC50): 266.66 | Relative potency ([3]; from IC50 read from curve): 169.23 | Potency for inhibition of TPA-induced inflammatory cell infiltration (in words) ([3]; ranking in text): strong to very strong anti-inflammatory effect

From patent publication US20050267204A1, “Synergistic gold-containing compositions” (MEDICAL INNOVATIONS LIMITED, priority 1996, published 2005)
